Reference: patent publication US20260207591A1, “CRYSTAL FORM OF FLUORINE-SUBSTITUTED INDAZOLE COMPOUND AND USE THEREOF” (SUNSHINE LAKE PHARMA CO., LTD., priority 2022, published 2026)

Columns and labels:
[1] = Light-exposure test (stability study); format: physicochemical; conditions: visible 4500 lx±500 lx and UV, 30 days; for Purity (%): HPLC
Description: (§1) Expose the sample to visible light (4500 lx±500 lx) and UV light (energy ≥0.7 W·h/m^2) for 30 days. Collect samples at 0, 5, 10, 15, and 30 days for analysis according to the key stability test items. Observe any color changes and determine purity by HPLC.

[2] = High-humidity test (stability study); format: physicochemical; conditions: for Purity (%): HPLC
Description: (§2) Place an appropriate amount of the test sample from one batch in a flat weighing bottle, spreading it into a thin layer ≤5 mm thick. Store at 25° C. and 90%±5% relative humidity (RH) for 30 days. Collect samples at 0, 5, 10, and 30 days for analysis according to the key stability test items. Observe any color changes and determine purity by HPLC.

[3] = Stability studies, overall conclusion; format: physicochemical
Description: Example 5 Stability Studies
(§3) Place an appropriate amount of the test sample in a flat weighing bottle, spreading it into a thin layer ≤5 mm thick. Store at 60° C.±2° C. for 30 days. Collect samples at 0, 5, 10, and 30 days for analysis according to the key stability test items. Observe any color changes and determine purity by HPLC.
as §2, §1

[4] = Pharmacokinetics test in Beagle dogs, oral capsules; format: in vivo; conditions: dog, plasma, male Beagle dogs, 5 mg/kg
Description: Male Beagle dogs of 8-12 kg were divided into 3 groups, 3 dogs in each group, and capsules containing test samples were orally administered at a dose of 5 mg/kg, and blood was collected at time points of 0.25, 0.5, 1.0, 2.0, 4.0, 6.0, 8.0 and 24 h. Standard curve was plotted based on concentrations of the samples in a suitable range, the concentration of the test sample in the plasma sample was measured and quantified by AB SCIEX API4000-type LC-MS/MS at MRM mode. Pharmacokinetic parameters were calculated according to drug concentration-time curve using a noncompartmental method by WinNonLin 6.3 software.

[5] = Hygroscopicity test by dynamic vapor sorption (DVS); format: physicochemical; conditions: for Weight Gain at 60% RH (%) / Weight Gain at 80% RH (%) / Weight Gain at 95% RH (%): DVS, 25° C.; for resistance to deliquescence: high-humidity conditions
Description: The hygroscopicity of the present invention was determined using a DVS INT-Std dynamic vapor and gas sorption analyzer from Surface Measurement Systems Ltd. (UK) with the following parameters: humidity test range: 0%-95%, gas flow: 200 mL/min, temperature: 25° C., test points: one measurement point every 5% humidity increase.
An appropriate amount of the test sample was taken, and its hygroscopicity was measured using a dynamic vapor sorption (DVS) instrument. The classification criteria for hygroscopicity characteristics and moisture absorption weight gain (as per Appendix 9103 “Guidelines for Hygroscopicity Testing of Drugs” from the Chinese Pharmacopoeia 2020 Edition, test conditions: 25° C.±1° C., 80%±2% relative humidity (RH)) are described in Table 2 below: […]

Solubility (HPLC) = format: physicochemical
Description: The solubility of the present invention was determined using an Agilent 1200 High Performance Liquid Chromatograph DAD/VWD detector with an Agilent XDB-C18 model (4.6×50 mm, 5 μm). Detection wavelength of 266 nm, flow rate of 1.0 mL/min, the column temperature of 35° C., mobile phase A: acetonitrile—0.01 M ammonium acetate=10:90 (V:V) analysis methods: acetonitrile-mobile phase A=70:30 (V:V), running time: 10 minutes.

[6] = Crystal form conversion in solvents; format: physicochemical; conditions: solvents such as ethanol
[7] = High-temperature test (stability study); format: physicochemical
Description: (1) High-Temperature Test:
as §3

[8] = 0 day (start of stability tests)
[9] = High-Humidity, 25° C., 90%±5% RH, 30 days

| SMILES | Outward [1] | Purity (%) [1] [%] | Outward [2, 8] | Purity (%) [2, 8] [%] | Outward [2, 9] | Purity (%) [2, 9] [%] | crystal structure stability (polymorphic transition) [3] | stability under various storage conditions [3] | AUC(0-t) [4] [ng·h/mL] | Cmax [4] [ng/mL] | Tmax [4] [h] | Weight Gain at 60% RH (%) [5] [%] | Weight Gain at 80% RH (%) [5] [%] | Weight Gain at 95% RH (%) [5] [%] | resistance to deliquescence [5] | solubility (in words) (Solubility (HPLC)) | crystal form conversion in solvents [6] | polymorphic transformation under high-temperature conditions [7] |
| --- | --- | --- | --- | --- | --- | --- | --- | --- | --- | --- | --- | --- | --- | --- | --- | --- | --- | --- |
| COC(=O)Nc1c(N)nc(-c2nn(Cc3ccccc3F)c3c(F)cccc23)nc1N [Crystal Form XI, methyl (4,6-diamino-2-(7-fluoro-1-(2-fluorobenzyl)-1H-indazol-3-yl)pyrimidin-5-yl)carbamate] | Off-white | 99.75 | Off-white | 99.77 | Off-white | 99.80 | less prone to polymorphic transition | excellent stability | 12100 | 1140 | 10 | 0.15 | 0.20 | 0.26 | highly resistant to deliquescence | good solubility |  |  |
| COC(=O)Nc1c(N)nc(-c2nn(Cc3ccccc3F)c3c(F)cccc23)nc1N [Crystal Form III, methyl (4,6-diamino-2-(7-fluoro-1-(2-fluorobenzyl)-1H-indazol-3-yl)pyrimidin-5-yl)carbamate] | Pale yellow | 99.75 | Pale yellow | 99.76 | Pale yellow | 99.78 |  | excellent stability |  |  |  | 0.09 | 0.14 | 0.25 | highly resistant to deliquescence |  |  |  |
| COC(=O)Nc1c(N)nc(-c2nn(Cc3ccccc3F)c3c(F)cccc23)nc1N [Crystal Form I, methyl (4,6-diamino-2-(7-fluoro-1-(2-fluorobenzyl)-1H-indazol-3-yl)pyrimidin-5-yl)carbamate] |  |  |  |  |  |  |  |  |  |  |  |  |  |  |  |  | exhibit crystal form conversion |  |
| COC(=O)Nc1c(N)nc(-c2nn(Cc3ccccc3F)c3c(F)cccc23)nc1N [Crystal Form V, methyl (4,6-diamino-2-(7-fluoro-1-(2-fluorobenzyl)-1H-indazol-3-yl)pyrimidin-5-yl)carbamate] | Pale yellow | 99.36 | Off-white | 99.52 | Off-white | 99.51 |  |  |  |  |  |  |  |  |  |  | exhibit crystal form conversion | undergoes polymorphic transformation |
